# Results taken from patent US11400136B2, “Methods and compositions for treating a microbial infection” (priority 2017, dated 2022).
# Entries after “also recorded” stand apart in the source; their conditions may differ. Like-named read-outs stand apart in the source and are kept apart here.
# Assays:
# [1] = tested on: S. aureus USA300; test: S. aureus (MRSA) lung infection / lethal pneumonia; format: in vivo, mouse
# [2] = tested on: S. pyogenes M1; format: cell-based, mouse
# [3] = tested on: S. pyogenes M1; format: cell-based, Streptococcus pyogenes; settings: 1 h
# [4] = tested on: Streptococcus pneumoniae strain WU-2; test: S. pneumoniae lung infection; format: in vivo, mouse; settings: RTX vs vehicle; P=0.13
# [5] = tested on: skin punch biopsies; test: CGRP release assay from skin explants; format: in vivo, mouse; settings: RTX-treated vs vehicle; 7 h
# Description: CGRP release assay from skin explants. Skin punch biopsies (12 mm) were collected from the uninfected or infected flank skin samples of euthanized mice, and rapidly transferred to 24-well plates containing 1 mL of DMEM. Explants were incubated at 32° C. with gentle shaking (150 rpm) for 30 min.
# [6] = tested on: neutrophils; test: Pulmonary intravital microscopy of neutrophils; format: in vivo, mouse; settings: RTX
# Description: Pulmonary intravital microscopy. […]. To visualize neutrophils and endothelium, 3.5 μg Alexa Fluor 594 conjugated anti-Ly6G antibody (clone 1A8, BioLegend) and 5 μg Alexa Fluor 647 conjugated anti-CD31 antibody (clone MEC13.3, BioLegend) were injected intravenously. Mice were placed on a heating pad maintained at 37° C. and connected to mechanical ventilation (Harvard Apparatus) after a tracheostomy is performed. Mice were kept in a right lateral decubitus position and their left lung was exposed after a thoracotomy and rib resection. A portion of the lung was immobilized via a gentle vacuum chamber with a glass slide fitted on top. A resonant-scanner confocal microscope (Leica SP8) equipped with a white light laser and three HyD spectral detectors and a 25×/0.9 water objective lens were used for intravital microscopy. Images were acquired every 10 s for a total of 10 min, three to five fields of view were observed. All videos and images were processed and analyzed using Leica software and Volocity software. For neutrophil behavior analysis, tethering was defined as rapid movement with blood flow and stop for less than 30 s. Adhesion was defined as neutrophils that remained stationary for 30 s or longer. Crawling was defined as polarized cells that maintained continuous contact with the endothelium while changing physical location for at least 30 s. Random neutrophils were tracked manually in 10-min videos by using Volocity software.
# [7] = tested on: Pseudomonas aeruginosa strain PA01V; test: P. aeruginosa lung infection; format: in vivo, mouse; settings: RTX vs vehicle
# [8] = Heat sensitivity (hot plate and tail-flick assays); format: in vivo, mouse; settings: RTX vs vehicle
# Description: Behavior tests. For behavioral assays, observers were blinded to treatment group and genotype. To measure heat sensitivity, mice were placed on a hot plate set at 52° C. (IITC Life Science). Latency to hindpaw lifting/licking/flinching was recorded, and stopped at a maximum of 60 seconds. For tail-flick assay, mice were kept vertically in a relaxed fashion with their tail immersed in a temperature-controlled water bath maintained at 52° C. The latency to a tail flick was recorded, with maximum of 60 seconds.
# [9] = tested on: Klebsiella pneumoniae; test: K. pneumoniae lung infection; format: in vivo, mouse; settings: RTX vs vehicle
# [10] = tested on: TRPV1-positive nociceptors; test: Ablation of TRPV1+ nociceptors, quantification of DRG/vagal ganglia neurons; settings: mouse, in vivo
# [11] = tested on: S. pyogenes M1; format: in vivo, mouse
# [12] = format: in vivo, mouse; settings: RTX-treated vs vehicle; steady state
# Description: Vital sign measurements. Heart rate, oxygen saturation and perfusion were measured under isoflurane anesthesia by Pulse Oximetry using the Kent Scientific PhysioSuite (Kent Scientific Corporation). For accuracy, measurements were performed three independent times on different days for the same mice, and values represent the average of three measurements. Pulse Oximetry could not be used on MRSA infected mice because they could not survive isoflurane anesthesia, and thus the measurements were only performed at steady state. Respiratory rates were determined by manually recording number of breaths per minute and averaged over three measurements. Core body temperature was measured using a rectal thermal probe (Bioseb).
# [13] = tested on: S. pyogenes M1; format: in vivo, mouse; remark: listed apart in the source
compound,measurement,setting,value
"CGRP8-37 (VTHRLAGLLSRSGGVVKNNFVPTNVGSKAF; Calcitonin gene-related peptide 1; UniProt P06881 90-119, looked up, fragment)",survival,"[1]; CGRP8-37 800 ng i.p. at -24, -2, 12, 24, 36, 48 h",improved survival
same,core body temperature maintenance,[1]; CGRP8-37 800 ng i.p. before and after infection,improved
same,core body temperature,[1]; CGRP8-37 7.5 μg i.p. after infection,significantly improved
same,survival,"[1]; CGRP8-37 7.5 μg i.p. at 4, 16, 24 h after infection",significantly improved survival
same,core-body temperature,[1]; CGRP8-37 i.p. 12 hours prior and 12 hours after infection,maintenance of core-body temperature
same,survival,"[1]; CGRP8-37 i.p. 12 hours prior and 12 hours after infection, 10^7 CFU",significantly improved survival
same,neutrophil killing of S. pyogenes suppressed by DRG neurons,[2],enhances neutrophil killing of bacteria; also recorded: prevented the suppressive effects
same,direct effects on S. pyogenes growth or viability,[3],did not have direct effects
"C=C(C)[C@]12C[C@@H](C)[C@@]34O[C@](Cc5ccccc5)(O[C@@H]1[C@@H]3C=C(COC(=O)Cc1ccc(O)c(OC)c1)C[C@]1(O)C(=O)C(C)=C[C@@H]41)O2 [RTX, Resiniferatoxin]",survival,[4],modest but non-significant protective effect
same,mice succumbed to / died from infection,[1]; RTX-treated mice given GR1 or control IgG,0%
same,lung bacterial burdens / clearance,"[1]; RTX-treated vs vehicle, 12 h",significantly improved; also recorded: reduced lung bacterial burdens
same,core body temperature,"[1]; RTX-treated vs vehicle, lethal MRSA",improved maintenance of core-body temperature
same,survival,"[1]; RTX-treated vs vehicle, lethal MRSA intra-tracheal",significantly improved survival; also recorded: the majority of RTX-treated mice survived
same,"BALF total protein, TNF-α, IL-6 and CXCL-1 induction","[1]; RTX, 6 h",faster kinetics in the induction
same,CD11b+Ly6G+ lung neutrophil recruitment,"[1]; RTX, 6 h and 12 h post-infection",striking increase
same,gram-positive bacterial colonies in lung (Brown and Brenn),"[1]; RTX, 12 h and 24 h",few bacterial colonies
same,lung cellular immune influx (H&E),"[1]; RTX, 12 h and 24 h post-infection",increased cellular immune influx
same,"BALF TNF-α, IL-6 and CXCL-1 levels","[1]; RTX, 12 h post-infection",markedly reduced
same,CGRP levels in BALF,"[1]; RTX, 12 h post-infection",significantly reduced
same,"bacterial load recovery, sub-lethal dose","[1]; RTX, S. aureus 2-4×10^7 CFU",enhanced protection
same,CGRP release in infected tissues,[5],lower CGRP release in infected tissues
same,neutrophil crawling distances,[6],significantly increased crawling distances
same,neutrophil vascular crawling,[6],a significant proportion of neutrophils demonstrated vascular crawling
same,neutrophils recruited to pulmonary capillaries,[6]; 4 h post-infection GFP-S. aureus,significantly more neutrophils
same,survival,[7],did not impact death
same,latency to noxious heat,[8],increased latency to noxious heat
same,survival,[9],did not impact death
same,TRPV1+ and CGRP+ neurons in DRG (and vagal/nodose ganglia),[10],significant loss of CGRP+ nociceptive neurons; also recorded: led to loss of TRPV1+ and CGRP+ neurons; also recorded: loss of TRPV1+ and CGRP+ neurons in DRG and VG
same,dermonecrosis,"[11]; RTX 30, 70, 100 μg/kg s.c., infection 4 weeks later",significantly less dermonecrosis
same,"S. pyogenes in lesions, quantitative cultures",[11]; RTX-treated vs vehicle,log-fold reductions of S. pyogenes
same,body weight regain,[11]; RTX-treated vs vehicle,regained body weight faster
same,skin abscess size,[11]; RTX-treated vs vehicle,resolved faster
same,"monocytes, other myeloid cells, CD11b-CD45+ leukocytes (FACS)","[11]; RTX-treated vs vehicle, 1 day",not detected
same,skin histopathology,"[11]; RTX-treated, day 3",containment of the bacterial infection within a circumscribed abscess containing polymorphonuclear leukocytes
same,S. pyogenes cultured from spleens,"[11]; RTX-treated, day 9",did not yield detectable bacteria
same,"oxygen saturation, heart rate, perfusion, respiratory rates",[12],did not differ
same,heat hyperalgesia,[13]; RTX-treated,abrogated
same,mechanical hyperalgesia,[13]; RTX-treated,abrogated
same,spontaneous pain behaviors,[13]; RTX-treated,abrogated
CC(C)Cc1ccc(C(C)C(=O)O)cc1 (centres unmarked) [Ibuprofen],heat hyperalgesia,[13]; ibuprofen 50 mg/kg,had no effect
same,mechanical hyperalgesia,[13]; ibuprofen 50 mg/kg,had no effect
NCCCC[C@H](NC(=O)[C@@H](Cc1cc(Br)c(O)c(Br)c1)NC(=O)N1CCC(N2Cc3ccccc3NC2=O)CC1)C(=O)N1CCN(c2ccncc2)CC1 [BIBN4096],neutrophil killing of S. pyogenes suppressed by DRG neurons,[2],enhances neutrophil killing of bacteria; also recorded: prevented the suppressive effects
same,direct effects on S. pyogenes growth or viability,[3],did not have direct effects
same,abscess formation,"[11]; mouse, in vivo, 30 mg/kg",significantly decreases abscess formation; also recorded: reduced abscesses
same,dermonecrotic lesion size,"[11]; mouse, in vivo, ip, 30 mg/kg",significantly smaller lesion formation; also recorded: smaller dermonecrotic lesions
same,neutrophil (CD11b+Ly6G+) recruitment to infected area,"[11]; treated 2 h after infection, 1 day after injection",increased the recruitment of neutrophils
same,"bacterial load recovery, flank skin and spleen","[11]; treated 2 h after infection, 9 days after injection of bacteria",decreases flank skin and spleen bacterial burdens; also recorded: increased bacterial clearance in the skin
